This is an account of results in US9890124B2, “Benzazepine sulfonamide compounds” (Hoffmann-La Roche Inc., priority 2015, dated 2018).

A value given as a limit tells only on which side of the number the result lay.

The target of one assay is human TLR8 (Homo sapiens (Human), UniProt Q9NR97). Put plainly: HEK-Blue human TLR8 cells NF-κB SEAP reporter assay. To be noted: stimulation for 20 hours. The assay is classed as cell-based. The text has this: (§1) For TLR8 and TLR7 activity testing, HEK-Blue human TLR8 or TLR7 cells (Invivogen, San Diego, Calif., USA) are used, respectively. These cells are designed for studying the stimulation of human TLR8 or TLR7 by monitoring the activation of NF-κB. A SEAP (secreted embryonic alkaline phosphatase) reporter gene is placed under the control of the IFN-b minimal promoter fused to five NF-κB and AP-1-binding sites. Therefore the reporter expression is regulated by the NF-κB promoter upon stimulation of human TLR8 or TLR7 for 20 hours. The cell culture supernatant SEAP reporter activity was determined using Quanti Blue kit (Invivogen, San Diego, Calif., USA) at a wavelength of 640 nm, a detection medium that turns purple/blue in the presence of alkaline phosphatase. EC50 values were determined using Activity Base analysis (ID Business Solution, Limited).
Background: In a reporter assay the amount or activity of a reporter protein is the signal.

A further assay addresses human TLR7 (Homo sapiens (Human), UniProt Q9NYK1). Put plainly: HEK-Blue human TLR7 cells NF-κB SEAP reporter assay. The class given is cell-based. The following applies: stimulation for 20 hours.
Text: as §1

human TLR8, sequence (Q9NR97 27-1041): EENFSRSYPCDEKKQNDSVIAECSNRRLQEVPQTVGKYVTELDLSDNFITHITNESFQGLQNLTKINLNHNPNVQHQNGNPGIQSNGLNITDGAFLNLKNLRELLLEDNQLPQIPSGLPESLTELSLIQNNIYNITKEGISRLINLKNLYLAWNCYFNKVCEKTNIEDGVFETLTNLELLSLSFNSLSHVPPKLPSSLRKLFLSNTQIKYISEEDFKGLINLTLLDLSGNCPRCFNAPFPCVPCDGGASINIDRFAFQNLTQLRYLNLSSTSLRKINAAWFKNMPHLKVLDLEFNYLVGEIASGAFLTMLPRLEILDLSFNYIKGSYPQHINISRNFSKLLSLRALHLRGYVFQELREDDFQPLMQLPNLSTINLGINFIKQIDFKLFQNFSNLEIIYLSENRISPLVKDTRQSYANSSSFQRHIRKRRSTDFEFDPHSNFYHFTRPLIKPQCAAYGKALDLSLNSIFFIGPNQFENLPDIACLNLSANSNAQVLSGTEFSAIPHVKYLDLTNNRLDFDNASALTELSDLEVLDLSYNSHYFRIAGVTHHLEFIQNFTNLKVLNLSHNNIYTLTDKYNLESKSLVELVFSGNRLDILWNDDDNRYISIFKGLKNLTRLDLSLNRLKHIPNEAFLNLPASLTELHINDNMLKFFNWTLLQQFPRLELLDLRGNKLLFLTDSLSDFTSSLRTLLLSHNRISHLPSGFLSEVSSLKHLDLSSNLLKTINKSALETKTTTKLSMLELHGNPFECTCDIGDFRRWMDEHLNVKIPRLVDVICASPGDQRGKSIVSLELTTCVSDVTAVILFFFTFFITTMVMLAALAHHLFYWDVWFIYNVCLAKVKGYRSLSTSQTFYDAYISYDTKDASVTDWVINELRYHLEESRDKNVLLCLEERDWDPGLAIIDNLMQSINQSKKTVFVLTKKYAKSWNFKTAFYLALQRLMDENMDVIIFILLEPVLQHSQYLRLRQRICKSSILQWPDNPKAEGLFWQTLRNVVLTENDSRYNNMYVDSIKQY
human TLR7, sequence (Q9NYK1 27-1049): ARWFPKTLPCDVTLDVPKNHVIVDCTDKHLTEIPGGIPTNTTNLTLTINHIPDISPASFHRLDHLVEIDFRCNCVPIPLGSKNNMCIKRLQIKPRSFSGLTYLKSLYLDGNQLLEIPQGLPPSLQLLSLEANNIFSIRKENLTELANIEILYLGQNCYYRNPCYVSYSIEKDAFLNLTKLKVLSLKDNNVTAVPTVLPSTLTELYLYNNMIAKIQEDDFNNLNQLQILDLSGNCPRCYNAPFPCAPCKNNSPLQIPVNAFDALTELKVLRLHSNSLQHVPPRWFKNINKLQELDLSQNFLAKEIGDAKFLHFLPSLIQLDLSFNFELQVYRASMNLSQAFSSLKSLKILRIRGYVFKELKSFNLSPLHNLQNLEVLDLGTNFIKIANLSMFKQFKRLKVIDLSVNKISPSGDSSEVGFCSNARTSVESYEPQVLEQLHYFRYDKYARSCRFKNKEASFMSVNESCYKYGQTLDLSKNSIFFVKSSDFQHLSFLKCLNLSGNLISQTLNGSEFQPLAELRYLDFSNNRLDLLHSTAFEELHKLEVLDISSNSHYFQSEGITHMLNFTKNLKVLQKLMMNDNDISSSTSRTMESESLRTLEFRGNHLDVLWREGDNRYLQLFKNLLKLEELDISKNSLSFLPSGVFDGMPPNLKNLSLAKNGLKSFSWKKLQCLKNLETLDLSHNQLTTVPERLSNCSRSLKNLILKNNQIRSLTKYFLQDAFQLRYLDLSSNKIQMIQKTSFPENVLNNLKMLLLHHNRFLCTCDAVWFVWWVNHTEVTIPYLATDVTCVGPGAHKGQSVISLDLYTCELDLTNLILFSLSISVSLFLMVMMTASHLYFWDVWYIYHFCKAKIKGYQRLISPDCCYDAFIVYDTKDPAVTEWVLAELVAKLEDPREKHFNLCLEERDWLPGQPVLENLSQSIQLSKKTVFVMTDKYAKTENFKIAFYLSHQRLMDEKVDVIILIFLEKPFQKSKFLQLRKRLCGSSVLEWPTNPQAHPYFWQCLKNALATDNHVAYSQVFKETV

A word on the EC50: it is the midpoint of the concentration-response curve. As for `CCCN(CCC)C(=O)C1=Cc2ccc(-c3cccc(S(N)(=O)=O)c3)cc2N=C(N)C1` [Example 1, 2-Amino-N,N-dipropyl-8-(3-sulfamoylphenyl)-3H-1-benzazepine-4-carboxamide], the values for the EC50 on human TLR8 and on human TLR7 were 6 nM and 3000 nM, respectively.
With `CCCN(CCC)C(=O)C1=Cc2ccc(-c3cccc(S(=O)(=O)NCCO)c3)cc2N=C(N)C1` [Example 2, 2-Amino-8-[3-(2-hydroxyethylsulfamoyl)phenyl]-N,N-dipropyl-3H-1-benzazepine-4-carboxamide], the EC50 at human TLR8 came out at 6 nM; on human TLR7, 7000 nM.
For `CCCN(CCC)C(=O)C1=Cc2ccc(-c3cccc(S(=O)(=O)N4CCCC4)c3)cc2N=C(N)C1` [Example 3, 2-amino-N,N-dipropyl-8-(3-pyrrolidin-1-ylsulfonylphenyl)-3H-1-benzazepine-4-carboxamide], in that order: 6 nM and over 100000 nM.
In the same order, the values of `CCCN(CCC)C(=O)C1=Cc2ccc(-c3cncc(S(N)(=O)=O)c3)cc2N=C(N)C1` [Example 4, 2-Amino-N,N-dipropyl-8-(5-sulfamoyl-3-pyridyl)-3H-1-benzazepine-4-carboxamide] are 23 nM and 5000 nM.
In the same order, the values of `CCCN(CCC)C(=O)C1=Cc2ccc(-c3cccc(S(=O)(=O)N4CCC(O)C4)c3)cc2N=C(N)C1` (stereo not shown) [Example 5, 2-Amino-8-[3-(3-hydroxypyrrolidin-1-yl)sulfonylphenyl]-N,N-dipropyl-3H-1-benzazepine-4-carboxamide] are 3 nM and 103000 nM.
Take `CCCN(CCC)C(=O)C1=Cc2ccc(-c3ccc(S(=O)(=O)N4CCC(O)C4)cc3)cc2N=C(N)C1` (stereo not shown) [Example 6, 2-Amino-8-[4-(3-hydroxypyrrolidin-1-yl)sulfonylphenyl]-N,N-dipropyl-3H-1-benzazepine-4-carboxamide]: the EC50 was found to be 10 nM at human TLR8 and 104000 nM at human TLR7.
Take `CCCN(CCC)C(=O)C1=Cc2ccc(-c3cccc(S(=O)(=O)N4CC[C@@H](O)C4)c3)cc2N=C(N)C1` [Example 7, 2-Amino-8-[3-[(3R)-3-hydroxypyrrolidin-1-yl]sulfonylphenyl]-N,N-dipropyl-3H-1-benzazepine-4-carboxamide]: the EC50 on human TLR8 was 5 nM; on human TLR7 it was 18000 nM.
In the same order, the values of `CCCN(CCC)C(=O)C1=Cc2ccc(-c3cccc(S(=O)(=O)N4CC[C@H](O)C4)c3)cc2N=C(N)C1` [Example 8, 2-Amino-8-[3-[(3S)-3-hydroxypyrrolidin-1-yl]sulfonylphenyl]-N,N-dipropyl-3H-1-benzazepine-4-carboxamide] are 5 nM and 24000 nM.
For `CCCN(CCC)C(=O)C1=Cc2ccc(-c3cccc(S(=O)(=O)N4CC(O)C4)c3)cc2N=C(N)C1` [Example 9, 2-Amino-8-[3-(3-hydroxyazetidin-1-yl)sulfonylphenyl]-N,N-dipropyl-3H-1-benzazepine-4-carboxamide], in that order: 5 nM and 17000 nM.
For `CCCN(CCC)C(=O)C1=Cc2ccc(-c3cccc(S(=O)(=O)N(C)CCO)c3)cc2N=C(N)C1` [Example 10, 2-Amino-8-[3-[2-hydroxyethyl(methyl)sulfamoyl]phenyl]-N,N-dipropyl-3H-1-benzazepine-4-carboxamide], in that order: 4 nM and 20000 nM.
`CCCN(CCC)C(=O)C1=Cc2ccc(-c3cccc(S(=O)(=O)NCCOCCO)c3)cc2N=C(N)C1` [Example 11, 2-Amino-8-[3-[2-(2-hydroxyethoxy)ethylsulfamoyl]phenyl]-N,N-dipropyl-3H-1-benzazepine-4-carboxamide]: the values for the EC50 at human TLR8 and at human TLR7 were 8 nM and 12000 nM, respectively.
For `CCCN(CCC)C(=O)C1=Cc2ccc(-c3cccc(S(=O)(=O)NCCCCCCO)c3)cc2N=C(N)C1` [Example 12, 2-Amino-8-[3-(6-hydroxyhexylsulfamoyl)phenyl]-N,N-dipropyl-3H-1-benzazepine-4-carboxamide], in that order: 8 nM and 12000 nM.
In the same order, the values of `CCCN(CCC)C(=O)C1=Cc2ccc(-c3cccc(S(=O)(=O)N4CCC(O)CC4)c3)cc2N=C(N)C1` [Example 13, 2-Amino-8-[3-[(4-hydroxy-1-piperidyl)sulfonyl]phenyl]-N,N-dipropyl-3H-1-benzazepine-4-carboxamide] are 4 nM and 17000 nM.
In the same order, the values of `CCCN(CCC)C(=O)C1=Cc2ccc(-c3cc(C(F)(F)F)cc(S(=O)(=O)N4CC[C@@H](O)C4)c3)cc2N=C(N)C1` [Example 14, 2-Amino-8-[3-[(3R)-3-hydroxypyrrolidin-1-yl]sulfonyl-5-(trifluoromethyl)phenyl]-N,N-dipropyl-3H-1-benzazepine-4-carboxamide] are 9 nM and over 100000 nM.
As to `CCCN(CCC)C(=O)C1=Cc2ccc(-c3ccc(OC)c(S(=O)(=O)N4CC[C@@H](O)C4)c3)cc2N=C(N)C1` [Example 15, 2-Amino-8-[3-[(3R)-3-hydroxypyrrolidin-1-yl]sulfonyl-4-methoxy-phenyl]-N,N-dipropyl-3H-1-benzazepine-4-carboxamide], the EC50 at human TLR8 is 4 nM; at human TLR7, 17000 nM.
For `CCCN(CCC)C(=O)C1=Cc2ccc(-c3cccc(S(=O)(=O)N4CC(CO)C4)c3)cc2N=C(N)C1` [Example 16, 2-Amino-8-[3-[3-(hydroxymethyl)azetidin-1-yl]sulfonylphenyl]-N,N-dipropyl-3H-1-benzazepine-4-carboxamide], in that order: 2 nM and 26000 nM.
As for `CCCN(CCC)C(=O)C1=Cc2ccc(-c3cccc(S(=O)(=O)N4CCC[C@@H](O)C4)c3)cc2N=C(N)C1` [Example 17, 2-Amino-8-[3-[[(3R)-3-hydroxy-1-piperidyl]sulfonyl]phenyl]-N,N-dipropyl-3H-1-benzazepine-4-carboxamide], the EC50 was 5 nM on human TLR8 and over 100000 nM on human TLR7.
For `CCCN(CCC)C(=O)C1=Cc2ccc(-c3cccc(S(=O)(=O)N4CCC[C@H](O)C4)c3)cc2N=C(N)C1` [Example 18, 2-Amino-8-[3-[[(3S)-3-hydroxy-1-piperidyl]sulfonyl]phenyl]-N,N-dipropyl-3H-1-benzazepine-4-carboxamide], in that order: 6 nM and over 100000 nM.
For `CCCN(CCC)C(=O)C1=Cc2ccc(-c3cccc(S(=O)(=O)N4CC[C@@H](O)C4)c3C)cc2N=C(N)C1` [Example 19, 2-Amino-8-[3-[(3R)-3-hydroxypyrrolidin-1-yl]sulfonyl-2-methyl-phenyl]-N,N-dipropyl-3H-1-benzazepine-4-carboxamide], in that order: 9 nM and 14000 nM.
For `CCCN(CCC)C(=O)C1=Cc2ccc(-c3cncc(S(=O)(=O)N4CCNCC4)c3)cc2N=C(N)C1` [Example 20, 2-Amino-8-(5-piperazin-1-ylsulfonyl-3-pyridyl)-N,N-dipropyl-3H-1-benzazepine-4-carboxamide], in that order: 17 nM and 5000 nM.
`CCCN(CCC)C(=O)C1=Cc2ccc(-c3cccc(S(=O)(=O)N4CCNCC4)c3)cc2N=C(N)C1` [Example 21, 2-Amino-8-(3-piperazin-1-ylsulfonylphenyl)-N,N-dipropyl-3H-1-benzazepine-4-carboxamide]: the EC50 on human TLR8 was 18 nM; on human TLR7, over 100000 nM.
In the case of `CCCN(CCC)C(=O)C1=Cc2ccc(-c3cncc(S(=O)(=O)N4CCC(N)C4)c3)cc2N=C(N)C1` (stereo not shown) [Example 22, 2-Amino-8-[5-(3-aminopyrrolidin-1-yl)sulfonyl-3-pyridyl]-N,N-dipropyl-3H-1-benzazepine-4-carboxamide], the concentration for a half-maximal effect (EC50) was 31 nM at human TLR8 and 17000 nM on human TLR7.
As for `CCCN(CCC)C(=O)C1=Cc2ccc(-c3cc(C)cc(S(=O)(=O)N4CC[C@@H](O)C4)c3)cc2N=C(N)C1` [Example 23, 2-Amino-8-[3-[(3R)-3-hydroxypyrrolidin-1-yl]sulfonyl-5-methyl-phenyl]-N,N-dipropyl-3H-1-benzazepine-4-carboxamide], the EC50 came out at 6 nM at human TLR8 and 13000 nM at human TLR7.
